Values after ≈ are worked out from the molar mass of the structure shown. Some results are limits rather than exact numbers.

Series [1] has as its target Proto-oncogene tyrosine-protein kinase Src (Gallus gallus, UniProt P00523).
The target in series [2] is Voltage-gated inwardly rectifying potassium channel KCNH2 (Homo sapiens, UniProt Q12809).
For series [3] the following is noted: buffer, pH 6.5.
Series [4] in a line: in vivo. Conditions: BALB/c, mouse, plasma, po, 10 mg/kg.
The nature of series [5]: in vivo. Conditions: BALB/c, mouse, plasma, po, 10 mg/kg. This is another data set of the same source.
Series [6] in a line: in vivo. Conditions: BALB/c, mouse, plasma, po, 10 mg/kg. This is another data set of the same source.
Series [7] in a line: in vivo. Conditions: BALB/c, mouse, plasma, po, 10 mg/kg. This is another data set of the same source.
The nature of series [8]: in vitro. Conditions: human, HepG2 cells.
Series [9] is described as follows: in vitro. Conditions: human, CRL8155 cells.
The target in series [10] is T1, Calmodulin-domain protein kinase 1 (Toxoplasma gondii, UniProt Q9BJF5).
T1 sequence (Q9BJF5 whole entry): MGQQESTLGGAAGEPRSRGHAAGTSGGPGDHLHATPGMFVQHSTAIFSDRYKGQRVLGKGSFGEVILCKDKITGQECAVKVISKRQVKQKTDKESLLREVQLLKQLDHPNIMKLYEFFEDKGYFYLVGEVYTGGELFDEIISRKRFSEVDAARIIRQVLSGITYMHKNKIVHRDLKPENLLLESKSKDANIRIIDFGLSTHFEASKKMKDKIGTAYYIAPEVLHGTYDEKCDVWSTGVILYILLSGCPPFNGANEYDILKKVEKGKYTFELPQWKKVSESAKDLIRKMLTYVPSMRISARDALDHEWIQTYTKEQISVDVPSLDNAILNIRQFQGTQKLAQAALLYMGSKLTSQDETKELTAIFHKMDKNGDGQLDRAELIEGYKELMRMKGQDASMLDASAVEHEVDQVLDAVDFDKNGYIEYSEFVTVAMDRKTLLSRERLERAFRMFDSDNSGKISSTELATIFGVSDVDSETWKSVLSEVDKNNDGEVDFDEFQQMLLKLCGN

The conditions of series [11]: mouse, in vivo, po, 10 mg/kg.
For series [12] the following is noted: mouse, in vivo, po, 10 mg/kg. The source holds these as a separate data set.
Series [13] relates to Toxoplasma gondii. As to the kind of experiment: microbe, parasite or virus in culture. Conditions: 44 h.
Series [14] is described as follows: in vivo. Conditions: BALB/c, mouse, plasma, po, 10 mg/kg. The source holds these as a separate data set.

Chain of Voltage-gated inwardly rectifying potassium channel KCNH2 (Q12809 whole entry): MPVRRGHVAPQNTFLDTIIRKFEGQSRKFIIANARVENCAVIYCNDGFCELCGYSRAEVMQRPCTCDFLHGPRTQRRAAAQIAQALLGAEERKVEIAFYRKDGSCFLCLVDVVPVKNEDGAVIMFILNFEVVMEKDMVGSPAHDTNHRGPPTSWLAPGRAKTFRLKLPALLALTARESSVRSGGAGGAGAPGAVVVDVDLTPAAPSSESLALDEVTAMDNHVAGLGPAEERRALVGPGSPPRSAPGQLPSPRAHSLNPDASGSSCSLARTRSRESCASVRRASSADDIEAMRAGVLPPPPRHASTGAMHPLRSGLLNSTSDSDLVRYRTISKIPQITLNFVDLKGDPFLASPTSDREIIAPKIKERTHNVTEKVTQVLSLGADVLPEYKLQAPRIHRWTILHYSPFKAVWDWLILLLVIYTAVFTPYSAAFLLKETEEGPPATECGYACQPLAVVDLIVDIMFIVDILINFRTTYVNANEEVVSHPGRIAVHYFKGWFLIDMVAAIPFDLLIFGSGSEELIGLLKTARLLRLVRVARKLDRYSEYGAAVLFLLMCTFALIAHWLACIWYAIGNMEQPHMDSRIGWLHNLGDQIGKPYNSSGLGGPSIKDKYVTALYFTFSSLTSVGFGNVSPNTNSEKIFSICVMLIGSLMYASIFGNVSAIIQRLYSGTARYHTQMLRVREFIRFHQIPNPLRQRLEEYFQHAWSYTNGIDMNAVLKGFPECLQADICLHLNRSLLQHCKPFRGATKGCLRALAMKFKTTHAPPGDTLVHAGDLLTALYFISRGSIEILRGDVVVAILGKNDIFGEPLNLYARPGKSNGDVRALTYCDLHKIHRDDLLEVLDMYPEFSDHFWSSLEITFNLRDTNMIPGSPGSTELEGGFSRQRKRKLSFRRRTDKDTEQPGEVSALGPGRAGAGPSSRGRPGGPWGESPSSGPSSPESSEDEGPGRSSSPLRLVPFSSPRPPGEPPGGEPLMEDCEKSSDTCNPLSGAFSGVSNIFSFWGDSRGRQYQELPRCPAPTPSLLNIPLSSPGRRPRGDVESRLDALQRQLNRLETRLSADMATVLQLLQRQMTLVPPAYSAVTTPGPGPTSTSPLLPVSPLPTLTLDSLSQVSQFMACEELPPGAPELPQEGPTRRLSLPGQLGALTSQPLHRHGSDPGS

Regarding `CC(C)(CO)Cn1nc(-c2ccc3nc(OC4CC4)ccc3c2)c2c(N)ncnc21`, the IC50 in series [1] is 7.4 µM; in series [2], over 10 µM. The molecule also came in with a solubility in [3] of 8 µM (≈ 3.24 µg/mL). The molecule also registered a Cmax in [4] of 3900 nM. In series [5], this molecule gave an AUC(0-inf) of 0.065 µM·h. In series [6], this molecule yielded a half-life of 0.683 h. Further, the CL/F in series [7] was determined as 21 mL/min. The GI50 at 48 h in [8] and in series [9] was over 10 µM in each case.

In the case of `CCOc1ccc2cc(-c3nn(CC(C)(C)O)c4ncnc(N)c34)ccc2n1`, the IC50 in [1] and in series [2] was over 10 µM throughout. The same molecule yielded a CL/F in series [7] of 0.2 mL/min. Further, the GI50 at 48 h in [8] and in [9] was over 10 µM each time.

For the molecule `CN1CCC(Cn2nc(-c3ccc4nc(OC5CC5)ccc4c3)c3c(N)ncnc32)CC1`, the IC50 in [1] was over 10 µM; in series [2] it was 1.7 µM. The same molecule yielded a GI50 at 48 h in series [8] of over 10 µM.

In the case of `CN1CCC(Cn2nc(-c3ccc4cc(OCC5CC5)ccc4c3)c3c(N)ncnc32)CC1`, the IC50 in series [1] is over 10 µM; in series [2] it was 0.9 µM. The GI50 at 48 h in series [8] and in series [9] was over 10 µM in each case.

Take `CCOc1ccc2cc(-c3nn(CC4CCOCC4)c4ncnc(N)c34)ccc2n1`: the half-maximal inhibitory concentration (IC50) in [1] and in series [2] was over 10 µM throughout. Further, the GI50 at 48 h in series [8] and in series [9] was over 10 µM throughout.

On to `CCOc1ccc2cc(-c3nn(CC4CCN(C(C)C)CC4)c4ncnc(N)c34)ccc2c1`, for which the figures for the IC50 in [10], in [1] and in [2] were 0.01 µM, over 10 µM and 0.3 µM, respectively. Besides, the GI50 at 48 h in [8] and in [9] was over 10 µM in each case.

Regarding `Nc1ncnc2c1c(-c1ccc3nc(OC4CC4)ccc3c1)nn2CC1CCOCC1`, the IC50 in series [1] and in series [2] was over 10 µM each time. In addition, the Tmax in series [11] was found to be 0.5 h. The molecule further displayed a maximum concentration (Cmax) in [12] of 880 nM. Besides, in series [5], the AUC(0-inf) is 1.12 µM·h. This molecule had a CL/F in [7] of 110 mL/min. The GI50 at 48 h in series [8] and in [9] was over 10 µM throughout. Moreover, in [13], the EC50 worked out at 0.081 µM.

In the case of `CN1CCC(Cn2nc(-c3ccc4cc(OC5CCC5)ccc4c3)c3c(N)ncnc32)CC1`, the IC50 was over 10 µM in series [1] and 0.2 µM in series [2]. The 50% growth inhibitory concentration (GI50) at 48 h in [8] and in series [9] was over 10 µM in each case.

Consider `CN(C)CC(C)(C)Cn1nc(-c2ccc3nc(OC4CC4)ccc3c2)c2c(N)ncnc21`, for which the IC50 was over 10 µM in series [1] and 0.082 µM in series [2]. Also, the GI50 at 48 h in series [8] and in series [9] was over 10 µM throughout.

As for `COCCOc1ccc2cc(-c3nn(CC4CCN(C)CC4)c4ncnc(N)c34)ccc2c1`, the IC50 in series [1] is over 10 µM. Further, the 50% growth inhibitory concentration (GI50) at 48 h in [8] and in [9] was over 10 µM each time.

Regarding `CC(C)(CO)Cn1nc(-c2ccc3cc(OC4CC4)ccc3c2)c2c(N)ncnc21`, the IC50 in series [1] was 3.1 µM; in series [2] it was over 10 µM. The Cmax in [12] turned out to be 390 nM. The molecule also had an AUC(0-inf) in [5] of 0.517 µM·h. Further, in series [7], the CL/F turned out to be 6.7 mL/min. Also, the GI50 at 48 h in [8] and in series [9] was over 10 µM in each case. The molecule further registered a 50% effective concentration (EC50) in series [13] of 0.056 µM.

Consider `CC(C)Cn1nc(-c2ccc3cc(OC4CC4)ccc3c2)c2c(N)ncnc21`, for which the IC50 in [10] is 0.0011 µM; in series [1] it was 3.7 µM; in series [2] it was over 10 µM. Besides, the GI50 at 48 h in series [9] was over 10 µM.

Regarding `CCOc1ccc2cc(-c3nn(CC4CCN(C(C)=O)CC4)c4ncnc(N)c34)ccc2c1`, the IC50 in [1] and in series [2] was over 10 µM each time. In series [3], this molecule displayed a solubility of 48 µM (≈ 21.3 µg/mL). In addition, the peak concentration (Cmax) in [4] came out at 890 nM. In series [5], the AUC(0-inf) was 1.57 µM·h. The CL/F in series [7] came out at 2.5 mL/min. Also, the GI50 at 48 h in series [8] and in [9] was over 10 µM throughout.

Regarding `CCOc1ccc2cc(-c3nn(CC4CCOCC4)c4ncnc(N)c34)ccc2c1`, the IC50 in [10] was 0.002 µM; in series [1], over 10 µM; in series [2], over 10 µM. Moreover, the GI50 at 48 h in series [8] and in [9] was over 10 µM in each case.

In the case of `Nc1ncnc2c1c(-c1ccc3cc(OC4CC4)ccc3c1)nn2CC(O)(C(F)(F)F)C(F)(F)F`, the IC50 in series [1] is over 10 µM. Besides, the GI50 at 48 h in series [8] and in series [9] was over 10 µM throughout.

Consider `CC1(Cn2nc(-c3ccc4cc(OC5CC5)ccc4c3)c3c(N)ncnc32)COC1`, for which the figures for the IC50 in series [10], in series [1] and in series [2] were 0.0021 µM, over 10 µM and 1.9 µM, respectively. Besides, the GI50 at 48 h in [8] and in series [9] was over 10 µM each time.

On to `CN1CCC(Cn2nc(-c3ccc4cc(OC5COC5)ccc4c3)c3c(N)ncnc32)CC1`, for which the half-maximal inhibitory concentration (IC50) was 0.01 µM in series [10] and over 10 µM in series [1]. Also, the 50% growth inhibitory concentration (GI50) at 48 h in series [8] and in [9] was over 10 µM in each case.

With `CC1(Cn2nc(-c3ccc4nc(OC5CC5)ccc4c3)c3c(N)ncnc32)COC1`, the 50% inhibitory concentration (IC50) in series [1] and in [2] was over 10 µM in each case. The GI50 at 48 h in series [8] and in series [9] was over 10 µM each time.

For the molecule `CN1CCC(Cn2nc(-c3ccc4cc(OC5CC5)ccc4c3)c3c(N)ncnc32)CC1`, the IC50 in [10] is 0.0015 µM; in [1], over 10 µM; in series [2] it was 0.37 µM. Further, the GI50 at 48 h in series [9] was over 10 µM.

Consider `Nc1ncnc2c1c(-c1ccc3cc(OC4CC4)ccc3c1)nn2CC1CCOCC1`, for which the IC50 in [10] is 0.0024 µM; in [1] it was 0.37 µM; in series [2], over 10 µM. The GI50 at 48 h in series [8] and in series [9] was over 10 µM each time.

In series [1], `CCOc1ccc2cc(-c3nn(CC(C)(C)O)c4ncnc(N)c34)ccc2c1` had an IC50 of over 10 µM. In addition, the concentration for 50% growth inhibition (GI50) at 48 h in [8] and in series [9] was over 10 µM throughout.

For `CCOc1ccc2cc(-c3nn(CC(C)C)c4ncnc(N)c34)ccc2c1`, the IC50 in series [1] and in [2] was over 10 µM throughout. Besides, the concentration for 50% growth inhibition (GI50) at 48 h in series [8] and in series [9] was over 10 µM each time.

For the molecule `CCOc1ccc2cc(-c3nn(CC4CN(C(C)=O)C4)c4ncnc(N)c34)ccc2c1`, the results for the IC50 in series [10], in series [1] and in series [2] were 0.004 µM, 1.1 µM and over 10 µM, respectively. In addition, the GI50 at 48 h in [8] and in [9] was over 10 µM each time.

Take `CCOc1ccc2cc(-c3nn(CC4CCN(C)CC4)c4ncnc(N)c34)ccc2c1`: the IC50 is over 10 µM in series [1] and 0.4 µM in series [2]. For the same molecule, the Cmax in series [12] turned out to be 750 nM. In addition, the time to peak (Tmax) in series [14] was 2 h. Moreover, the apparent clearance CL/F in [7] was found to be 0.7 mL/min. Besides, the GI50 at 48 h in [8] and in series [9] was over 10 µM each time.

`CCOc1ccc2cc(-c3nn(CC4CCN(C)CC4)c4ncnc(N)c34)ccc2n1`: the IC50 in series [10] was 0.0061 µM; in series [1], over 10 µM; in [2] it was 10 µM. For the same molecule, in series [14], the Tmax is 3.33 h. Besides, the peak level in series [4] (Cmax) was 260 nM. Further, the half-life in [6] worked out at 3.72 h. The CL/F in series [7] came out at 1.8 mL/min. Moreover, the GI50 at 48 h in [8] and in [9] was over 10 µM throughout.

As to `CCOc1ccc2cc(-c3nn(CC4CN(C)C4)c4ncnc(N)c34)ccc2c1`, the IC50 in series [10] is 0.006 µM; in series [1], over 10 µM; in series [2], 1.4 µM. Further, the GI50 at 48 h in series [8] and in series [9] was over 10 µM each time.

Regarding `CC(C)(CO)Cn1nc(-c2ccc3nc(OCC(F)(F)F)ccc3c2)c2c(N)ncnc21`, the figures for the IC50 in series [10] and in series [1] were 0.017 µM and over 10 µM, respectively. Further, the 50% growth inhibitory concentration (GI50) at 48 h in series [8] and in [9] was over 10 µM throughout.

Consider `CN1CCC(Cn2nc(-c3ccc4nc(OCC(F)(F)F)ccc4c3)c3c(N)ncnc32)CC1`, for which the IC50 in [2] worked out at 0.5 µM.

For the molecule `CCOc1ccc2cc(-c3nn(CC4CNC4)c4ncnc(N)c34)ccc2c1`, the results for the half-inhibitory concentration (IC50) in series [10], in series [1] and in [2] were 0.0032 µM, over 10 µM and 1.7 µM, respectively. Further, the GI50 at 48 h in series [8] and in series [9] was over 10 µM throughout.

Consider `CC(C)Cn1nc(-c2ccc3nc(OC4CC4)ccc3c2)c2c(N)ncnc21`, for which the IC50 in [1] and in series [2] was over 10 µM throughout. The GI50 at 48 h in series [8] and in series [9] was over 10 µM each time.
